Laboratory results from the NIST ThermoML archive (doi:10.1021/je034136z).
Where “and” joins values, the source holds several entries; their conditions need not be identical. Identical values can stand only once. ± gives the expanded uncertainty stated by the source. Blank lines part the entries; values can stand above or below the compound they belong to.

Conditions: Liquid

SMILES: CC(C)(C)O [2-methylpropan-2-ol]
vapor or sublimation pressure (322.78 K): 23.07 ± 0.35 kPa

SMILES: C=C(C)C [2-methylpropene]
vapor or sublimation pressure (322.79 K): 605.14 ± 2 kPa | vapor or sublimation pressure (323.11 K): 608.94 ± 2 kPa | vapor or sublimation pressure (323.14 K): 608.84 ± 2 kPa and 609.14 ± 2 kPa | vapor or sublimation pressure (323.15 K): 611.04 ± 2.1 kPa

SMILES: CO [methanol]
vapor or sublimation pressure (323.14 K): 55.57 ± 0.41 kPa

Other lines, results leading:

vapor or sublimation pressure (323.11 K): 10.57 ± 0.34 kPa
SMILES: CCC(C)O (centres undefined) [butan-2-ol]

vapor or sublimation pressure (323.17 K): 29.27 ± 0.36 kPa
SMILES: CCO [ethanol]

vapor or sublimation pressure (323.16 K): 23.47 ± 0.35 kPa
SMILES: CC(C)O [propan-2-ol]
